According to patent US8778984B2, “Aldosterone synthase inhibitor” (Eli Lilly and Company, priority 2011, dated 2014):

Tests used:
[1] = test system: aldosterone production in rats; test: Inhibition of Aldosterone Synthase in Rats (rat sodium-deficiency diet model); format: in vivo; settings: for % Inhibition 3 hrs / % Inhibition 6 hrs: inhibition of aldosterone vs vehicle; for % Inhibition 3 hrs / Aldosterone (pg/mL) 3 hrs: 3 hrs post oral dose; for % Inhibition 3 hrs / % Inhibition 6 hrs / Aldosterone (pg/mL) 3 hrs / Aldosterone (pg/mL) 6 hrs: Example 1 10.0 mg/kg, Example 49 30.0 mg/kg, Fadrozole 1.0 mg/kg; for % Inhibition 6 hrs / Aldosterone (pg/mL) 6 hrs: 6 hrs post oral dose; for effect on aldosterone production in vivo (in words) / Aldosterone (pg/mL) 3 hrs / Aldosterone (pg/mL) 6 hrs: rat Na-deficient diet model; for effect on aldosterone production in vivo (in words): summary of Table 18; for Aldosterone (pg/mL) 3 hrs / Aldosterone (pg/mL) 6 hrs: serum
Experimental: The effect of compounds on aldosterone production in rats is assessed using the rat sodium-deficiency diet model. […] At 3 hours post dose rats are bled (˜0.5 mL) from the ocular orbit under isoflurane anesthesia. At 6 hours post-dose the rats are euthanized with CO2 and bled by cardiac puncture. Blood samples are clotted at least 30 minutes and serum is prepared and stored at approximately −80° C. until assayed. Aldosterone, steroids, and compound exposure are analyzed by mass spectroscopy.

human cyp11B1 = target: T1, human cyp11B1 (Homo sapiens, UniProt P15538); test: Cortisol Inhibition Assay (V79-human cyp11B1 cells, cortisol by LC-MS); format: cell-based; settings: for Selectivity Ratio: IC50(hcyp11B1)/IC50(hcyp11B2); for IC50: V79-human cyp11B1 cells, cortisol production from 1 μM 11-deoxycortisol, 24 hours incubation, read-out: IC50 (hcyp11B1)
T1 construct: expressed in transfected cells
T1 sequence (P15538 25-503): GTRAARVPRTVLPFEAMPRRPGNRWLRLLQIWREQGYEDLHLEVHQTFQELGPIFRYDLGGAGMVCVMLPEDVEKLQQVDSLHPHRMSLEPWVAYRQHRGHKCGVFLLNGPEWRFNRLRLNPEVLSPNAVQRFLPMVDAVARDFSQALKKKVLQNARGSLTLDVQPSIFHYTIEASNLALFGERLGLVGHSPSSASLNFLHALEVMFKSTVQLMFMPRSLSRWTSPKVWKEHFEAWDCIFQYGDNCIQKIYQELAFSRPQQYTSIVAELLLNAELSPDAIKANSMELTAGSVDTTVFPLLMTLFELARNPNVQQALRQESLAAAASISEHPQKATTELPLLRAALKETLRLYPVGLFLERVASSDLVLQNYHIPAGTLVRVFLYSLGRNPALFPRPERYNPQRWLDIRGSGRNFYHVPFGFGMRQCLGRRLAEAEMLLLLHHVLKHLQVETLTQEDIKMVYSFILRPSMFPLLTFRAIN
Experimental: Chinese hamster fibroblast cells (V79) constitutively expressing human cyp11B1 are established by transfection with a mammalian expression vector harboring the human cyp11B1 cDNA under CMV promoter and a neomycin antibiotic resistant gene for selection in mammalian cells. V79 cells are transfected in T225 cm^2 flasks with the lipofectamine transfection reagent and the human cyp11B1 cDNA. Positive clones are selected with the selection antibiotic geneticin at 1 mg/mL. Cortisol production from transfected cells is initiated by the addition of 1 μM 11-deoxycortisol in the medium. After 24 hours incubation, culture medium is collected and cortisol concentration in the medium is determined using a liquid chromatography-mass spectrometry (LC-MS) method. The cell media (100 μL) is transferred to a new deep-well 96-well plate. A Beckman Coulter FX liquid handling system (modified for use with organic solvents) with a 96-tip head is used to add an IS solution to each well (10 μl of 200 ng/mL d-4-cortisol). The wells are then extracted 3× with EtOAc (300 μl) using the FX, combining the organic layers in a new deep-well 96-well plate. The solvent is then dried in a GeneVac HT-4 or under nitrogen. The FX is then used to reconstitute the samples in 50% MeOH/water (100 μl) and the plates are heat-sealed.
A 40 μl aliquot of the sample is injected and a gradient from 20-100% MeOH in 0.95 min is initiated. […] Starting conditions are then held for 1 minute to re-equilibrate the column. An ABI QTRAP 4000 tandem mass spectrometer is used for MS/MS analysis in the positive ion mode. […] These are respectively integrated to give the peak areas. The cortisol/IS area-ratio is used to determine cortisol concentration by comparison to a standard curve. The detection limit for cortisol is 1 ng/mL.
11-Deoxycortisol and various concentrations of test compounds in 1:3 dilution increments are added to the cell culture medium. After 24 hours incubation, 100 μl of cell medium are collected and cortisol concentration determined as described above. Data are fit to a 4 parameter-fit logistics curve to determine IC50 values.

CC1(C)C[C@H](c2ccc(C#N)cc2)c2cn[nH]c21 (single isomer, unassigned) [Example 1]
% Inhibition 3 hrs [1]: 48%
% Inhibition 6 hrs [1]: 46%
effect on aldosterone production in vivo (in words) [1]: inhibit aldosterone production in vivo
Aldosterone (pg/mL) 3 hrs [1]: 973 pg/mL
Aldosterone (pg/mL) 6 hrs [1]: 1380 pg/mL
Selectivity Ratio (human cyp11B1): 33.0
IC50 (human cyp11B1): 165 nM

CC1(C)CC(c2ccc(C#N)cc2F)c2cn[nH]c21 (single isomer, unassigned; isomer 1) [Example 49, 4-(6,6-Dimethyl-4,5-dihydro-1H-cyclopenta[c]pyrazol-4-yl)-3-fluoro-benzonitrile, isomer 1]
% Inhibition 3 hrs [1]: 46%
% Inhibition 6 hrs [1]: 33%
effect on aldosterone production in vivo (in words) [1]: inhibit aldosterone production in vivo
Aldosterone (pg/mL) 3 hrs [1]: 1008 pg/mL
Aldosterone (pg/mL) 6 hrs [1]: 1704 pg/mL
Selectivity Ratio (human cyp11B1): 44.4
IC50 (human cyp11B1): 311 nM
